Results from patent US7626031B2, “Substituted 3-(diarylmethylene)indolin-2-ones and methods of their use” (Symphony Evolution, Inc., priority 2002, dated 2009).

How the values were obtained:
[1] = molecular target: c-Kit kinase (Homo sapiens, UniProt P10721); experiment: c-Kit AlphaScreen kinase assay; format: biochemical
Procedure: (§1) Kinase activity and compound inhibition are investigated using one or more assay formats. The ATP concentrations for each assay are selected to be close to the Michaelis-Menten constant (KM) for each individual kinase. Dose-response experiments are performed at 10 different inhibitor concentrations in a 384-well plate format. […] Exemplary kinase assays are described below. KDR Assay
c-Kit biochemical activity was assessed using AlphaScreen™ (Perkin Elmer) technology, described above. Test compounds, ATP, biotinylated poly(Glu, Tyr) and c-Kit kinase were combined in a volume of 20 μL in a 384-well white, medium binding microtiter plate (Greiner). Reaction mixtures were incubated for 1 hr at ambient temperature. Reactions were quenched by addition of 10 uL of […] AlphaScreen bead suspension containing 75 mM Hepes, pH 7.4, 300 mM NaCl, 120 mM EDTA, 0.3% BSA and 0.03% Tween-20. After 16 hr incubation at ambient temperature plates were read using an AlphaQuest reader (Perkin Elmer).

[2] = molecular target: EphA2 (Homo sapiens, UniProt P29317); experiment: Kinase assay, EphA2 (33P-ATP incorporation or luciferase-coupled ATP consumption); format: biochemical
Chain of EphA2 (P29317 24-976, species assumed): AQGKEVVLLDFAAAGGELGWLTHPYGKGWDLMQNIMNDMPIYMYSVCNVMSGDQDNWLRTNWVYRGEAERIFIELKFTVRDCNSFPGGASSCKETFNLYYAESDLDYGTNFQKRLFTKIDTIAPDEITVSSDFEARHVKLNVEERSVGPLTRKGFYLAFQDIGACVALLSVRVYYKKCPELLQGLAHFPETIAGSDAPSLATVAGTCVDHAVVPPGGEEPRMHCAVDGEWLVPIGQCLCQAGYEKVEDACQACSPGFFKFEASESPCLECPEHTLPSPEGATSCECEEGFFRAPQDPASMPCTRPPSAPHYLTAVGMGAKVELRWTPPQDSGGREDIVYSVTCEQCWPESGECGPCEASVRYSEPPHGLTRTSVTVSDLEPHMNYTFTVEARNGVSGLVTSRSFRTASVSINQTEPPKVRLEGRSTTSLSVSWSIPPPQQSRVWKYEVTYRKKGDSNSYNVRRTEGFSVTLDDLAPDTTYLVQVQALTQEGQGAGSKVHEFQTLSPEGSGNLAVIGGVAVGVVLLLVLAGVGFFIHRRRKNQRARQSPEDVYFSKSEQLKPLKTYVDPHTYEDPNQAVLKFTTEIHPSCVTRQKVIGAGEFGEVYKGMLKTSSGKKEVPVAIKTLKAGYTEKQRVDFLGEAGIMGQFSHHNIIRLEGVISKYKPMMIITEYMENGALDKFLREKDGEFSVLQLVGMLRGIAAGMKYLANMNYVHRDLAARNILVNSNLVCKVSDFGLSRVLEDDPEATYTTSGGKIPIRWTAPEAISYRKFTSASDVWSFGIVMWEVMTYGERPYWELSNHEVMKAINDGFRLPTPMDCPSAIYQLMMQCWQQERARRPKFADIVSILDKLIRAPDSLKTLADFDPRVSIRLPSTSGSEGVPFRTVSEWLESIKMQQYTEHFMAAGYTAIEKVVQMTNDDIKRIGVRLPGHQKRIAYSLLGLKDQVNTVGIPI
In short: (§2)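 Radiometric format: γ-33P ATP incorporation into plate-immobilized myelin basic protein, enzyme 10 nM or 20 nM, 10 μM or 30 μM unlabeled ATP, 1 h at room temperature, 1% DMSO, scintillation counting; alternatively luciferase-measured ATP consumption with pEY substrate. ATP set near each kinase's KM; 10-point dose-response.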

[3] = molecular target: EGFR (Homo sapiens, UniProt P00533); experiment: Kinase assay, EGFR (33P-ATP incorporation or luciferase-coupled ATP consumption); format: biochemical
Chain of EGFR (P00533 25-1210, species assumed): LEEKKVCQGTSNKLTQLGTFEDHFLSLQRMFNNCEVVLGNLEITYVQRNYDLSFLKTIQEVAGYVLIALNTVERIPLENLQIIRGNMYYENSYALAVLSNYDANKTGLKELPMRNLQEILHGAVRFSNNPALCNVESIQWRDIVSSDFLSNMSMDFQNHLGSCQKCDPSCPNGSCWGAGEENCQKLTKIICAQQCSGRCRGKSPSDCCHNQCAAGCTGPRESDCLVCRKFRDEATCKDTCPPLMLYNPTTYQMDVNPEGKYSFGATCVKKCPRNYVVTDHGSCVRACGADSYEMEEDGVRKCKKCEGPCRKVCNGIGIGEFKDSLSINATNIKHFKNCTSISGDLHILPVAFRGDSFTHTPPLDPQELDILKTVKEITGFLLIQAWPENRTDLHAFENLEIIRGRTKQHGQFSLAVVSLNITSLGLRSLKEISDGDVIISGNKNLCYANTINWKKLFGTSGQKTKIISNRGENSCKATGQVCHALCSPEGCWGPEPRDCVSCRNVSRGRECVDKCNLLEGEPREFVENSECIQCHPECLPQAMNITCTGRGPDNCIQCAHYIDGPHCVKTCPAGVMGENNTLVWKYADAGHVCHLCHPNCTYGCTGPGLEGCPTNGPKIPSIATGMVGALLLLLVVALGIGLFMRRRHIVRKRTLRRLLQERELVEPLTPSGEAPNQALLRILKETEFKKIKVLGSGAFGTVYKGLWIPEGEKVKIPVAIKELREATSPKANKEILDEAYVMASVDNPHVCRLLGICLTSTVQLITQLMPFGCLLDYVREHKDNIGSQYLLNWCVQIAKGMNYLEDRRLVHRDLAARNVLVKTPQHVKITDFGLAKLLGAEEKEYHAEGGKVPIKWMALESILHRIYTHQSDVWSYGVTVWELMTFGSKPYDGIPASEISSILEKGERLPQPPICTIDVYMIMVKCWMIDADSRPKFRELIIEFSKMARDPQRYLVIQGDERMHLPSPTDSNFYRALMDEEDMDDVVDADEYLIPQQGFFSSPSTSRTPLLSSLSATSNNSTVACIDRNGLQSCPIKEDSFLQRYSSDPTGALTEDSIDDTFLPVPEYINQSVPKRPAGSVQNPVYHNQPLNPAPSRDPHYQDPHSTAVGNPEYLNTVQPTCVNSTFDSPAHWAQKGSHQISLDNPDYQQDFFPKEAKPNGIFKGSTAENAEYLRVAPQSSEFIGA
In short: as §2

[4] = molecular target: Fyn (Homo sapiens, UniProt P06241); experiment: Kinase assay, Fyn; format: biochemical
Procedure: as §1

[5] = molecular target: IRK (Homo sapiens, UniProt P06213); experiment: Kinase assay, IRK; format: biochemical
Chain of IRK (P06213 28-1382): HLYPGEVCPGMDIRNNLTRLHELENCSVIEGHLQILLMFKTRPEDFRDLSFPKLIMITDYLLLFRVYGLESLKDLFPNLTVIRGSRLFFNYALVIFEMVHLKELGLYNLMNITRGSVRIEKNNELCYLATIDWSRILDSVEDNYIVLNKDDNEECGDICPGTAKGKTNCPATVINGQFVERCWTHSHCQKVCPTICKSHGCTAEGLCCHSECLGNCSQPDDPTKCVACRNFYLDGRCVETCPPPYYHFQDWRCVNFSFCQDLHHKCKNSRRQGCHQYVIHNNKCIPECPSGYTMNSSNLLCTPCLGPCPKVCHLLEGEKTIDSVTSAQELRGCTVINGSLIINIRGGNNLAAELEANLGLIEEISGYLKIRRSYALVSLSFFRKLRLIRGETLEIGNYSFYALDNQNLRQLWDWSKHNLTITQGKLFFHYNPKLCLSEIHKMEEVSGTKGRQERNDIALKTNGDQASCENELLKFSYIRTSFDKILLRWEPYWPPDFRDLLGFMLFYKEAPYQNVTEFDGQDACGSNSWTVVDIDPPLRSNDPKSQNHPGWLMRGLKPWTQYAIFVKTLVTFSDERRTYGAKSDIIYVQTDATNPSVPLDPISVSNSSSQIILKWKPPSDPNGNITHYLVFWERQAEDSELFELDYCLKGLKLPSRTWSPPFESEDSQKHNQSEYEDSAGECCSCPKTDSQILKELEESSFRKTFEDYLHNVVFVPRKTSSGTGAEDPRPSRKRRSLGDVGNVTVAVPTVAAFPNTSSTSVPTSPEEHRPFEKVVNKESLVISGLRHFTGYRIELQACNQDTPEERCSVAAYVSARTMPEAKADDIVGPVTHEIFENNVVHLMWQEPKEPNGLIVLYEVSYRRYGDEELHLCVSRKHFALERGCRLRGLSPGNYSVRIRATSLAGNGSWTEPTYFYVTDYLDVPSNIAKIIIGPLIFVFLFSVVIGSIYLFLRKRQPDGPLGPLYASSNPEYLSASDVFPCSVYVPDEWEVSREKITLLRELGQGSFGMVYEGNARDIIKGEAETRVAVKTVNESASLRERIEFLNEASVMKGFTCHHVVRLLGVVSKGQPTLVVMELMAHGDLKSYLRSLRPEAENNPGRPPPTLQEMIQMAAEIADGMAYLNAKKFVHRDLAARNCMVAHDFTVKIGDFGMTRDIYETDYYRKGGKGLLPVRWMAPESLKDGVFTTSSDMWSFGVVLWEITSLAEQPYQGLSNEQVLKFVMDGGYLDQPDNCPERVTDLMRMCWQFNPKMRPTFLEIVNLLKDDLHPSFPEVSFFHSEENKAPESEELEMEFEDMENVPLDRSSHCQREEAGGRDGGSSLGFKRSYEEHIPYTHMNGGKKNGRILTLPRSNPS
Procedure: as §1

[6] = molecular target: T1, KDR (baculovirus expressed human KDR kinase domain D807-V1356) (Homo sapiens, UniProt P35968); experiment: biochemical
T1 construct: human KDR kinase domain D807-V1356; host or cells: baculovirus expression system
In short: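 Baculovirus human KDR kinase domain (D807–V1356) with ATP near its KM; 10-point dose-response, 4 h at ambient temperature. Activity taken as percent ATP remaining, detected by luciferase–luciferin chemiluminescence.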

[7] = molecular target: Flt-1 (Homo sapiens, UniProt P17948); experiment: Kinase assay, Flt-1 (33P-ATP incorporation or luciferase-coupled ATP consumption); format: biochemical; details: read-out: Flt1 IC50
Chain of Flt-1 (P17948 27-1338, species assumed): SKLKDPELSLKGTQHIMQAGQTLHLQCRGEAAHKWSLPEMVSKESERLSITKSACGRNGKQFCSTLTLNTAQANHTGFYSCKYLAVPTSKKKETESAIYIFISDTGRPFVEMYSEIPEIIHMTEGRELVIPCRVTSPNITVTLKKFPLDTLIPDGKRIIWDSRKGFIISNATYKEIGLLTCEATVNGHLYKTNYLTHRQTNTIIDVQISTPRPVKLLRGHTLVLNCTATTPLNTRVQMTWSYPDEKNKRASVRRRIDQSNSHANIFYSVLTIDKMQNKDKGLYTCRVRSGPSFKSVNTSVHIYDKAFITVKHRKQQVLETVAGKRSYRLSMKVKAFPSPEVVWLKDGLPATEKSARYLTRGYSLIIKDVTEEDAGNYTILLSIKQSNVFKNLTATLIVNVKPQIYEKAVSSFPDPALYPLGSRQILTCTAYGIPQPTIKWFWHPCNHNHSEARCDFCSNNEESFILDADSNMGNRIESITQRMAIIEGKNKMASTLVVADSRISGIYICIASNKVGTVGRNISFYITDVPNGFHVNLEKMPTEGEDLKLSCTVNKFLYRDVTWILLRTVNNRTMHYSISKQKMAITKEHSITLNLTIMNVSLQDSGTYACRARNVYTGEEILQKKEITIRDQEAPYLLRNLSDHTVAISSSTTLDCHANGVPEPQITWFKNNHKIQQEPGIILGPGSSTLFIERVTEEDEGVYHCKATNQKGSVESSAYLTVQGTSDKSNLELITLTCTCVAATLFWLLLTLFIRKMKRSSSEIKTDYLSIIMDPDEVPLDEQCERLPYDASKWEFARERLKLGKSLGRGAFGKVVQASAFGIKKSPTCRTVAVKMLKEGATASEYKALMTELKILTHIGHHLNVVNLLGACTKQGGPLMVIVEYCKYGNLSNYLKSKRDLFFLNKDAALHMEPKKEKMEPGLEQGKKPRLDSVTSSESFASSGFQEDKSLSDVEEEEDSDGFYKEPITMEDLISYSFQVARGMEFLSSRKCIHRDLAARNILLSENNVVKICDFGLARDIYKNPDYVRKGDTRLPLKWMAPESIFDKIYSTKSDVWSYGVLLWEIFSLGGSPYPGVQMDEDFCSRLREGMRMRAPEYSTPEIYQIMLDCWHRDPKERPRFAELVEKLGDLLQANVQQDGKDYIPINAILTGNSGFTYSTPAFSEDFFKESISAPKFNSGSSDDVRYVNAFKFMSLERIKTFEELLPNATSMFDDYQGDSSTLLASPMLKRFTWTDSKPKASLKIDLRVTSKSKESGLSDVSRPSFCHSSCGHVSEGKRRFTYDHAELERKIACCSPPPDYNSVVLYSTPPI
In short: as §2

[8] = molecular target: FGFR1 (Homo sapiens, UniProt P11362); experiment: Kinase assay, FGFR1 (33P-ATP incorporation or luciferase-coupled ATP consumption); format: biochemical
In short: as §2

[9] = molecular target: PDGFR alpha (Homo sapiens, UniProt P16234); experiment: Kinase assay, PDGFR alpha (33P-ATP incorporation or luciferase-coupled ATP consumption); format: biochemical; details: read-out: PDGF-R-A IC50
In short: as §2

Question: Which results are given for `COCCN1CCC(Nc2ccc3c(c2)/C(=C(\c2ccccc2)c2nc4ccccc4[nH]2)C(=O)N3)CC1` [Entry 24, (3Z)-3-[1H-benzimidazol-2-yl(phenyl)methylidene]-5-({1-[2-(methyloxy)ethyl]piperidin-4-yl}amino)-1,3-dihydro-2H-indol-2-one]?
Answer: IC50 [1]: < 50 nM; IC50 [2]: 500 to 5000 nM; IC50 [3]: 50 to 500 nM; IC50 [4]: < 50 nM; IC50 [5]: 500 to 5000 nM

Question: How did the IC50 [6] turn out when `COCCN1CCC(Nc2ccc3c(c2)/C(=C(\c2ccc(F)cc2)c2nc4ccccc4[nH]2)C(=O)N3)CC1` [Entry 47, (3Z)-3-[1H-benzimidazol-2-yl(4-fluorophenyl)methylidene]-5-({1-[2-(methyloxy)ethyl]piperidin-4-yl}amino)-1,3-dihydro-2H-indol-2-one] was run?
Answer: Its IC50 is less than 50 nM.

Question: And the IC50 [2]?
Answer: The IC50 was 500 to 5000 nM.

Question: And the IC50 [7]?
Answer: Its IC50 is 500 to 5000 nM.

Question: And the IC50 [3]?
Answer: The IC50 was 500 to 5000 nM.

Question: And the IC50 [8]?
Answer: Its IC50 is 50 to 500 nM.

Question: What about the IC50 [9] of the same molecule?
Answer: Its IC50 is less than 50 nM.

Question: What about the IC50 [4] of the same molecule?
Answer: The IC50 was 50 to 500 nM.

Question: What about the IC50 [5] of the same molecule?
Answer: Its IC50 is 500 to 5000 nM.

Question: Which IC50 [6] does the source give for `CCN1CCC(Nc2ccc3c(c2)/C(=C(\c2cccc(Cl)c2)c2ncc[nH]2)C(=O)N3)CC1` [Entry 48, (3Z)-3-[(3-chlorophenyl)(1H-imidazol-2-yl)methylidene]-5-[(1-ethylpiperidin-4-yl)amino]-1,3-dihydro-2H-indol-2-one] here?
Answer: The IC50 was less than 50 nM.

Question: And the IC50 [2]?
Answer: The IC50 was 500 to 5000 nM.

Question: What about the IC50 [7] of the same molecule?
Answer: Its IC50 is 50 to 500 nM.

Question: What about the IC50 [3] of the same molecule?
Answer: The IC50 was 50 to 500 nM.

Question: And the IC50 [8]?
Answer: Its IC50 is less than 50 nM.

Question: What about the IC50 [9] of the same molecule?
Answer: Its IC50 is less than 50 nM.

Question: What about the IC50 [4] of the same molecule?
Answer: Its IC50 is less than 50 nM.

Question: What about the IC50 [5] of the same molecule?
Answer: Its IC50 is greater than 5000 nM.

Question: For `CCN1CCC(Nc2ccc3c(c2)/C(=C(\c2ccc(C)c(F)c2)c2nc4ccccc4[nH]2)C(=O)N3)CC1` [Entry 50, (3Z)-3-[1H-benzimidazol-2-yl(3-fluoro-4-methylphenyl)methylidene]-5-{(1-ethylpiperidin-4-yl)amino]-1,3-dihydro-2H-indol-2-one], which IC50 [6] is on record?
Answer: Its IC50 is less than 50 nM.

Question: What about the IC50 [2] of the same molecule?
Answer: The IC50 was 500 to 5000 nM.

Question: What about the IC50 [7] of the same molecule?
Answer: Its IC50 is less than 50 nM.

Question: And the IC50 [3]?
Answer: The IC50 was less than 50 nM.

Question: What about the IC50 [8] of the same molecule?
Answer: The IC50 was less than 50 nM.

Question: And the IC50 [9]?
Answer: Its IC50 is less than 50 nM.

Question: What about the IC50 [4] of the same molecule?
Answer: Its IC50 is less than 50 nM.

Question: And the IC50 [5]?
Answer: The IC50 was 500 to 5000 nM.

Question: `CCN1CCC(Nc2ccc3c(c2)/C(=C(\c2ccc(F)c(Cl)c2)c2ncc[nH]2)C(=O)N3)CC1` [Entry 53, (3Z)-3-[(3-chloro-4-fluorophenyl) (1H-imidazol-2-yl)methylidene]-5-[(1-ethylpiperidin-4-yl)amino]-1,3-dihydro-2H-indol-2-one] was tested. Which IC50 [6] did it give?
Answer: The IC50 was less than 50 nM.

Question: And the IC50 [1]?
Answer: Its IC50 is less than 50 nM.

Question: What about the IC50 [2] of the same molecule?
Answer: Its IC50 is 500 to 5000 nM.

Question: And the IC50 [3]?
Answer: The IC50 was 500 to 5000 nM.

Question: And the IC50 [8]?
Answer: The IC50 was less than 50 nM.

Question: What about the IC50 [9] of the same molecule?
Answer: The IC50 was less than 50 nM.

Question: What about the IC50 [4] of the same molecule?
Answer: Its IC50 is less than 50 nM.

Question: And the IC50 [5]?
Answer: The IC50 was greater than 5000 nM.

Question: How did the IC50 [6] turn out when `CCN1CCC(Nc2ccc3c(c2)/C(=C(\c2ccc(F)c(F)c2)c2ncc[nH]2)C(=O)N3)CC1` [Entry 54, (3Z)-3-[(3,4-difluorophenyl)(1H-imidazol-2-yl)methylidene]-5-[(1-ethylpiperidin-4-yl)amino]-1,3-dihydro-2H-indol-2-one] was run?
Answer: Its IC50 is less than 50 nM.

Question: What about the IC50 [1] of the same molecule?
Answer: The IC50 was 50 to 500 nM.

Question: What about the IC50 [2] of the same molecule?
Answer: The IC50 was 500 to 5000 nM.

Question: What about the IC50 [3] of the same molecule?
Answer: The IC50 was 500 to 5000 nM.

Question: What about the IC50 [8] of the same molecule?
Answer: The IC50 was less than 50 nM.

Question: What about the IC50 [9] of the same molecule?
Answer: Its IC50 is less than 50 nM.

Question: What about the IC50 [4] of the same molecule?
Answer: The IC50 was less than 50 nM.

Question: And the IC50 [5]?
Answer: Its IC50 is greater than 5000 nM.

Question: Which results are given for `CCN1CCC(Nc2ccc3c(c2)/C(=C(\c2ccc(C(F)(F)F)cc2)c2ncc[nH]2)C(=O)N3)CC1` [Entry 60, (3Z)-5-[(1-ethylpiperidin-4-yl)amino]-3-{1H-imidazol-2-yl[4-(trifluoromethyl)phenyl]methylidene}-1,3-dihydro-2H-indol-2-one]?
Answer: IC50 [6]: < 50 nM; IC50 [1]: 50 to 500 nM; IC50 [2]: 500 to 5000 nM; IC50 [3]: 500 to 5000 nM; IC50 [8]: < 50 nM; IC50 [9]: < 50 nM; IC50 [4]: < 50 nM; IC50 [5]: > 5000 nM

Question: With `CCN1CCC(Nc2ccc3c(c2)/C(=C(\c2ccc(C(F)(F)F)c(F)c2)c2ncc[nH]2)C(=O)N3)CC1` [Entry 65, (3Z)-5-[(1-ethylpiperidin-4-yl)amino]-3-[[3-fluoro-4-(trifluoromethyl)phenyl](1H-imidazol-2-yl)methylidene]-1,3-dihydro-2H-indol-2-one] as the molecule, how does the IC50 [6] read?
Answer: Its IC50 is less than 50 nM.

Question: And the IC50 [1]?
Answer: The IC50 was 50 to 500 nM.

Question: And the IC50 [2]?
Answer: The IC50 was 500 to 5000 nM.

Question: And the IC50 [3]?
Answer: Its IC50 is 50 to 500 nM.

Question: What about the IC50 [8] of the same molecule?
Answer: The IC50 was less than 50 nM.

Question: What about the IC50 [9] of the same molecule?
Answer: Its IC50 is less than 50 nM.

Question: What about the IC50 [4] of the same molecule?
Answer: Its IC50 is less than 50 nM.

Question: What about the IC50 [5] of the same molecule?
Answer: The IC50 was greater than 5000 nM.
